# According to patent publication US20100034839A1, “METHODS FOR TREATING VIRAL DISORDERS” (priority 2008, published 2010):
# “Also recorded” adds a separate entry of the source.
# System: CLIP^+ B cells and lymphocyte subsets in spleen and lymph nodes
# Assay: CpG-ODN (TLR9) induced chronic hyperimmune activation in B6.129 mice with or without peptide
# Type: in vivo, mouse
# Protocol: FIG. 14 depicts that administration of targeted peptide in combination with CpG-ODN reverses the inflammatory effects of TLR9 activation. FIG. 14a: B6.129 mice were injected with CpG-ODN, a TLR9 agonist without (black squares) or with VGV-hB (black circles). Total spleen cell recoveries (top panel) and lymph node cell recoveries (lower panel) at 24, 72, and 96 hours are reported. FIG. 14b: spleen cells from untreated B6.129 (upper left panel) mice, spleen cells from mice injected intraperitoneally with CpG-ODN for 48 hours (upper right panel), spleen cells from mice injected intraperitoneally with CpG-ODN+targeted peptide (VGV-hB) (lower left panel), or spleen cells from mice injected intraperitoneally with CpG-ODN+scrambled peptide (VGV-sP) (lower right panel), were harvested and stained using anti-mouse B220-PE Cy5 versus 15G4-FITC anti-mouse CLIP/I-Ab Cells were analyzed flow-cytometrically using two-dimensional dot plot analysis. FIGS. 14c & 14d: individual B6.129 animals were injected with CpG-ODN and one of three doses of peptide replacement, with either VGV-hB (FIG. 14c) or VGV-sB (FIG. 14d). As indicated, for each dose, four to six animals were injected with each of three doses, at 0.5, 5, and 50 μg per injection. Splenocytes were removed after 48 hours, stained using anti-mouse B220-PE versus 15G4-FITC anti-mouse CLIP/I-Ab. Cells were acquired and analyzed with flow cytometry, using two-dimensional dot plot analysis. Percentages of CLIP+ B cells were plotted using scatter plot analysis. The formula for the slope of each line is indicated in each of FIGS. 14c & 14d.
# FIG. 15 depicts the effects of targeted peptides on the distribution of TLR activated lymphoid subsets of B cells, CD4+ T cells, CD8+ T cells, and on CD4+ T regulatory cells. FIG. 15a: B6.129 mice were injected with CpG-ODN without (squares) or with (circles) VGV-hB. Spleen (solid black symbols) and lymph nodes (open symbols) were harvested at 24, 72, and 96 hours, and stained using anti-mouse B220-PE versus 15G4-FITC anti-mouse CLIP/I-Ab. Data were plotted as percent CLIP+ B cells from either spleen or node. FIG. 15b: B6.129 mice were injected with CpG-ODN without (squares) or with (circles) VGV-hB. Spleen (solid black symbols) and lymph nodes (open symbols) were harvested at 24, 72, and 96 hours, and stained using anti-mouse CD8-PE. Data were plotted as percent CD8+ T cells from either spleen or node as indicated. FIG. 15c: B6.129 mice were injected with CpG-ODN without (squares) or with (circles) VGV-hB. Spleen (solid black symbols) and lymph nodes (open symbols) were harvested at 24, 72, and 96 hours, and stained using anti-mouse CD4 GK1.5-FITC. Data were plotted as percent CD4+ T cells from either spleen or node. FIG. 15d: B6.129 mice were injected with CpG-ODN without (squares) or with (circles) VGV-hB. Spleen (solid black symbols) and lymph nodes (open symbols) were harvested at 24, 72, and 96 hours, and stained using anti-mouse CD4 GK1.5-PE versus anti-mouse FoxP3-FITC. Data were plotted as percent CD4+ FoxP3+ T cells from either spleen or node.
# FIG. 16 depicts that TLR activation and peptide reversal differentially affect cell death of lymphocyte subsets. FIG. 16a: B6.129 mice were injected with CpG-ODN without (solid black lines) or with VGV-hB (dashed lines). Cells were counted and viability was determined flow cytometrically. T cell viability 48 hours subsequent to CPG-ODN treatment alone is indicated by solid circles and solid black line; T cell viability, 48 hours after treatment with CpG-ODN and VGV-hB, is indicated by solid squares and dashed line. B cell viability, CpG-ODN treatment alone, is indicated by black x's on a solid black line; B cell viability after CpG-ODN and VGV-hB is indicated by solid black triangles and dashed lines. FIG. 16b: Ag-specific T cell hybridomas induce apoptosis B cells. FIG. 16c: Ag-specific T cell hybridomas induce apoptosis in resting and in CpG-ODN stimulated splenocytes, but not in antigen receptor engaged B cells. […]
# [1] = VGV-hB in combination with TLR 9 stimulation, FIG. 16a
sequence,measurement,setting,value
FRIMAVLAS,"effect of CpG-ODN on total cell numbers, absolute numbers of B cells and CLIP^+ B cell distribution between spleen and lymph node","24, 72, 96 hours, FIG. 15a",reduced
same,percent of CpG-induced CLIP^+ B cells in spleen,"CpG-ODN plus peptide intraperitoneally, 48 hours, FIG. 14b",reversed the effects of CPG alone
same,CD8^+ T cells,CpG-ODN with VGV-hB,promotes expansion of CD8^+ T cells
same,CD4^+FoxP3^+ Tregs in the lymph nodes,"FIG. 15d, 15e, listed as VGV-hB",reversible; also recorded: decreases in Tregs
same,B cell death,[1],increased B cell death
same,number of live CD4^+ T cells,[1],moderate increase in the number of live CD4^+ T cells
same,"reversal of CpG-ODN activation incl. percent of CLIP^+ B cells from total spleen, peptide titration","dose titration of peptide per mouse, FIGS. 14c and 14d",reversed the effects of CpG-ODN activation
